Source: patent US7932255B2, “2-aminocarbonyl substituted piperazine or diaza-cyclic compounds as apoptosis protein inhibitors (lap) modulators” (Novartis AG, priority 2006, dated 2011)
pIC50: −log10 of the molar value. Where no end group is shown, it is not given here.

Tests used:
[1] = target: T1, XIAP (Homo sapiens, UniProt P98170); experiment: Disruption of the Smac peptide-(XIAP)BIR3 protein-protein interaction (Tables 2 and 3); format: binding; settings: Series B compounds, Table 3; read-out: XIXP IC50
T1 construct: GST
Summary of the method: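 Compounds compete with immobilized Smac peptide for the XIAP BIR3 pocket. Percent inhibition at 4 concentrations (usually 3- or 10-fold series from 10 μM); IC50 by logarithmic regression, normalized to an average reference-inhibitor IC50.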

[2] = tested on: GST-BIR3 fusion protein; experiment: FMAT Smac peptide / GST-BIR3 competition assay; format: binding; settings: competing GST-BIR3 off the FMAT beads; read-out: IC50 for non-biotinylated Smac (FMAT)
Description: In order to measure the ability of the inventive compounds to bind the BIR3 peptide binding pocket, a solution phase assay on the FMAT or ELISA technology platform is utilized.
Biotinylated Smac 7-mer peptide (AVPIAQK, lysine ε-amino group is biotinylated) is immobilized on streptavidin coated beads. GST-BIR3 fusion protein is precipitated with FMAT beads and is detected using fluorescent tagged anti-GST antibodies. […] The IC50 for non-biotinylated Smac is 400 nM.

T1 sequence (P98170 248-358 limits assumed, species assumed): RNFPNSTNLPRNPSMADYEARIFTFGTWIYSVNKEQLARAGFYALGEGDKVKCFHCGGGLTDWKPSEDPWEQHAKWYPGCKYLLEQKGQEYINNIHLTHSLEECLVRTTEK

Row | Molecule | pIC50 [1] | pIC50 [2]
1 | CN[C@@H](C)C(=O)N[C@H](C(=O)N1CCN(Cc2ccccc2)C[C@H]1C(=O)NC1CCc2ccccc2C1)C(C)C (stereo partly drawn) [Compound 68, (S)-4-Benzyl-1-[(S)-3-methyl-2-((S)-2-methylamino-propionylamino)-butyryl]-piperazine-2-carboxylic acid (1,2,3,4-tetrahydro-naphthalen-2-yl)-amide] | > 5.00 | –
2 | CN[C@@H](C)C(=O)N[C@H](C(=O)N1CCN(Cc2ccccc2)C[C@H]1C(=O)NCCc1ccncc1)C(C)C [Compound 69, (S)-4-Benzyl-1-[(S)-3-methyl-2-((S)-2-methylamino-propionylamino)-butyryl]-piperazine-2-carboxylic acid (2-pyridin-4-yl-ethyl)-amide] | < 5.00 | –
3 | CN[C@@H](C)C(=O)N[C@H](C(=O)N1CCN(Cc2ccccc2)C[C@H]1C(=O)NCCCc1ccccc1)C(C)C [Compound 72, (S)-4-Benzyl-1-[(S)-3-methyl-2-((S)-2-methylamino-propionylamino)-butyryl]-piperazine-2-carboxylic acid (3-phenyl-propyl)-amide] | < 5.00 | –
4 | CN[C@@H](C)C(=O)N[C@H](C(=O)N1CCN(Cc2ccccc2)C[C@H]1C(=O)NCC1CCCCCC1)C(C)C [Compound 77, (S)-4-Benzyl-1-[(S)-3-methyl-2-((S)-2-methylamino-propionylamino)-butyryl]-piperazine-2-carboxylic acid cycloheptylmethyl-amide] | < 5.00 | –
5 | CN[C@@H](C)C(=O)N[C@H](C(=O)N1CCN(Cc2ccccc2)C[C@H]1C(=O)NC(Cc1ccccc1)Cc1ccccc1)C(C)C [Compound 80, (S)-4-Benzyl-1-[(S)-3-methyl-2-((S)-2-methylamino-propionylamino)-butyryl]-piperazine-2-carboxylic acid (1-benzyl-2-phenyl-ethyl)-amide] | > 5.00 | –
6 | CN[C@@H](C)C(=O)N[C@H](C(=O)N1CCN(Cc2ccccc2)C[C@H]1C(=O)NCC1CCCC1)C(C)C [Compound 81, (S)-4-Benzyl-1-[(S)-3-methyl-2-((S)-2-methylamino-propionylamino)-butyryl]-piperazine-2-carboxylic acid cyclopentylmethyl-amide] | > 5.00 | –
7 | CN[C@@H](C)C(=O)N[C@H](C(=O)N1CCN(Cc2ccccc2)C[C@H]1C(=O)NCc1ccco1)C(C)C [Compound 82, (S)-4-Benzyl-1-[(S)-3-methyl-2-((S)-2-methylamino-propionylamino)-butyryl]-piperazine-2-carboxylic acid (furan-2-ylmethyl)-amide] | > 5.00 | –
8 | CN[C@@H](C)C(=O)N[C@H](C(=O)N1CCN(Cc2ccccc2)C[C@H]1C(=O)NCc1cc(F)cc(F)c1)C(C)C [Compound 84, (S)-4-Benzyl-1-[(S)-3-methyl-2-((S)-2-methylamino-propionylamino)-butyryl]-piperazine-2-carboxylic acid 3,5-difluoro-benzylamide] | > 5.00 | –
9 | CN[C@@H](C)C(=O)N[C@H](C(=O)N1CCN(Cc2ccccc2)C[C@H]1C(=O)N[C@H](C)c1ccccc1)C(C)C [Compound 87, (S)-4-Benzyl-1-[(S)-3-methyl-2-((S)-2-methylamino-propionylamino)-butyryl]-piperazine-2-carboxylic acid ((R)-1-phenyl-ethyl)-amide] | > 5.00 | –
10 | AVPIAQK [non-biotinylated Smac] | – | 6.40

Other lines, results leading:

Row | pIC50 [1] | pIC50 [2] | Molecule
11 | > 5.00 | – | CN[C@@H](C)C(=O)N[C@H](C(=O)N1CCN(Cc2ccccc2)C[C@H]1C(=O)NCCc1ccccc1F)C(C)C [Compound 67, (S)-4-Benzyl-1-[(S)-3-methyl-2-((S)-2-methylamino-propionylamino)-butyryl]-piperazine-2-carboxylic acid [2-(2-fluoro-phenyl)-ethyl]-amide]
12 | > 5.00 | – | CN[C@@H](C)C(=O)N[C@H](C(=O)N1CCN(Cc2ccccc2)C[C@H]1C(=O)NCc1ccc(F)cc1)C(C)C [Compound 70, (S)-4-Benzyl-1-[(S)-3-methyl-2-((S)-2-methylamino-propionylamino)-butyryl]-piperazine-2-carboxylic acid 4-fluoro-benzylamide]
13 | > 5.00 | – | CN[C@@H](C)C(=O)N[C@H](C(=O)N1CCN(Cc2ccccc2)C[C@H]1C(=O)NCCc1ccc(F)cc1)C(C)C [Compound 71, (S)-4-Benzyl-1-[(S)-3-methyl-2-((S)-2-methylamino-propionylamino)-butyryl]-piperazine-2-carboxylic acid [2-(4-fluoro-phenyl)-ethyl]-amide]
14 | < 5.00 | – | CN[C@@H](C)C(=O)N[C@H](C(=O)N1CCN(Cc2ccccc2)C[C@H]1C(=O)NCc1nccs1)C(C)C [Compound 73, (S)-4-Benzyl-1-[(S)-3-methyl-2-((S)-2-methylamino-propionylamino)-butyryl]-piperazine-2-carboxylic acid (thiazol-2-ylmethyl)-amide]
15 | > 5.00 | – | CN[C@@H](C)C(=O)N[C@H](C(=O)N1CCN(Cc2ccccc2)C[C@H]1C(=O)NC1CCc2ccccc2C1)C(C)C (stereo partly drawn) [Compound 74, (S)-4-Benzyl-1-[(S)-3-methyl-2-((S)-2-methylamino-propionylamino)-butyryl]-piperazine-2-carboxylic acid (1,2,3,4-tetrahydro-naphthalen-2-yl)-amide]
16 | > 5.00 | – | CN[C@@H](C)C(=O)N[C@H](C(=O)N1CCN(Cc2ccccc2)C[C@H]1C(=O)NC1c2ccccc2-c2ccccc21)C(C)C [Compound 75, (S)-4-Benzyl-1-[(S)-3-methyl-2-((S)-2-methylamino-propionylamino)-butyryl]-piperazine-2-carboxylic acid (9H-fluoren-9-yl)-amide]
17 | > 5.00 | – | CCN(C(=O)[C@@H]1CN(Cc2ccccc2)CCN1C(=O)[C@@H](NC(=O)[C@H](C)NC)C(C)C)C1CCCc2ccccc21 (stereo partly drawn) [Compound 76, (S)-4-Benzyl-1-[(S)-3-methyl-2-((S)-2-methylamino-propionylamino)-butyrl]-piperazine-2-carboxylic acid ethyl-(1,2,3,4-tetrahydro-naphthalen-1-yl)-amide]
18 | > 5.00 | – | CN[C@@H](C)C(=O)N[C@H](C(=O)N1CCN(Cc2ccccc2)C[C@H]1C(=O)NC1Cc2ccccc2C1)C(C)C [Compound 78, (S)-4-Benzyl-1-[(S)-3-methyl-2-((S)-2-methylamino-propionylamino)-butyryl]-piperazine-2-carboxylic acid indan-2-ylamide]
19 | > 5.00 | – | CN[C@@H](C)C(=O)N[C@H](C(=O)N1CCN(Cc2ccccc2)C[C@H]1C(=O)NCC1CCCCC1)C(C)C [Compound 79, (S)-4-Benzyl-1-[(S)-3-methyl-2-((S)-2-methylamino-propionylamino)-butyryl]-piperazine-2-carboxylic acid cyclohexylmethyl-amide]
20 | < 5.00 | – | CN[C@@H](C)C(=O)N[C@H](C(=O)N1CCN(Cc2ccccc2)C[C@H]1C(=O)NCCC(C)C)C(C)C [Compound 83, (S)-4-Benzyl-1-[(S)-3-methyl-2-((S)-2-methylamino-propionylamino)-butyryl]-piperazine-2-carboxylic acid (3-methyl-butyl)-amide]
21 | > 5.00 | – | CN[C@@H](C)C(=O)N[C@H](C(=O)N1CCN(Cc2ccccc2)C[C@H]1C(=O)N1Cc2ccccc2C1)C(C)C [Compound 85, (S)-N-{(S)-1-[(S)-4-Benzyl-2-(1,3-dihydro-isoindole-2-carbonyl)-piperazine-1-carbonyl]-2-methyl-propyl}-2-methylamino-propionamide]
22 | > 5.00 | – | CN[C@@H](C)C(=O)N[C@H](C(=O)N1CCN(Cc2ccccc2)C[C@H]1C(=O)N1CCc2ccccc2C1)C(C)C [Compound 86, (S)-N-{(S)-1-[(S)-4-Benzyl-2-(3,4-dihydro-1H-isoquinoline-2-carbonyl)-piperazine-1-carbonyl]-2-methyl-propyl}-2-methylamino-propionamide]
